Experimental data taken from patent publication US9162992B2, “Compounds and compositions for treatment of breathing control disorders or diseases” (GALLEON PHARMACEUTICALS, INC., priority 2010, dated 2015).

How the values were obtained:
[1] = test system: morphine-induced respiratory depression; assay: Opioid-induced respiratory depression in the rat, plethysmography (minute ventilation); assay type: in vivo; conditions: morphine sulfate 10 mg/kg IV; infusion 0.10 then 0.30 mg/kg/min, 20 min each; vs vehicle
Experimental: Rats with pre-cannulated jugular vein (for administering drugs) were acclimated to plethysmography chambers for a minimum of 60 minutes, or until animals were no longer restless. Each animal was dosed with morphine sulfate (10 mg/kg), dissolved in sterile water at a concentration of 10 mg/mL (supplied by Baxter Healthcare Corporation), via injection into the jugular vein catheter over a period of 5-10 seconds.
Compound (XXXVI) was dissolved in 20% hydroxypropyl β-cyclodextran (20% bcd on graph) at a concentration of 0.45 mg/mL at pH 5. After a period of 5 min, compound (XXXVI), labeled as cmpd (A), was administered via infusion into the jugular vein at a dose of 0.10 mg/kg/min for 20 min and then at a dose of […] for 20 min (e.g., 20 μL/min/0.3 kg rat to yield […]).
After 20 minutes of infusion at this dose, the infusion pumps were turned off, and all animals were given a 20 minute recovery period, followed by a post-study analysis of rat health and behavior. […] Results are illustrated in FIG. 1.

[2] = test system: hypercapnic ventilatory response; assay: Hypercapnic ventilatory response (HCVR, 3% CO2), rat plethysmography; assay type: in vivo; conditions: for hypercapnia ventilatory response (HCVR): 3% CO2
Experimental: A 1.5 mg/mL stock was created to give an infusion dose of 0.10 mg/kg/min. A separate 0.45 mg/mL stock was created to give an infusion dose of 0.03 mg/kg/min. All compound solutions and vehicles were titrated to have a pH between 4-8, using a pH paper and titrating with NaOH or HCl solution.
Male Sprague-Dawley rats (Harlan, Inc.), 250-350 g at time of dosing, had been surgically prepared by Harlan to contain jugular vein cannulas. A 12 chamber plethysmography system with temperature/humidity compensation (Epstein et al., 1980, J. Apply Physiol. 49:1107-1115) from Buxco, Inc. (PLY 3223; Buxco, Inc, Wilmington, N.C., USA) using Biosystem XA software, v2.11.1 and a customized 12 site automated infusion system (Harvard Apparatus, Instech, Inc). Gas mixer (CWE Inc.) was used for this experiment to give concentrations of hypercapnia (3% CO2, 21% O2, balance nitrogen). Three tanks containing 100% O2, CO2, and nitrogen were attached to the gas mixer, with the customized gas mixture fed to each plethysmograph at a rate of 2 L/min.
Rat whole body plethysmography was used to evaluate and quantify minute ventilation and the pattern of breathing. A respiratory waveform was generated from the exchange of air between the animal and the chamber. This exchange induced changes in air volume that were measured with a pressure transducer, constituting the respiratory waveform (Lomask M., 2005, “Respiration measurement in the whole body plethysmography,” Buxco Inc., retrieved from http://www dot buxco dot com/downloads/LomaskWBP dot pdf). Atmospheric temperature and humidity were also measured using temperature and humidity probes that sampled chamber conditions. A compensation factor was then determined and applied to the respiratory waveform using a standardized algorithm (Epstein et al., 1980, J. Apply Physiol. 49:1107-1115) to compensate for respiratory conditioning, which was reported as the parameter COMP.
All animals were acclimated to plethysmography chambers for at least 1 hour, or until animals were no longer restless (up to 2 hours prior to data collection). Minute ventilation (MV) was calculated by the Biosystem XA software from direct measurements of tidal volume (TV) and respiratory frequency (f) using the formula MV=TV×f. Minute ventilation (mL/min) is a common endpoint for evaluating ventilatory performance. The protocol included compound (XXXVI) given as a 20 minute infusion, followed by a 20 minute exposure to 3% hypercapnia in addition to the compound (XXXVI) infusion. After 20 minutes of hypercapnia, the compound (XXXVI) infusion continued for an additional 10 minutes, resulting in a total compound (XXXVI) infusion time of 50 minutes. Each experiment included 6 animals receiving compound (XXXVI) (0.03 or 0.10 mg/kg/min) tested against 6 animals receiving vehicle, all of which were challenged with hypercapnia (3%). Animals were continuously monitored and observed for adverse behavioral effects. Such findings were recorded into laboratory notebooks for each individual animal tested.
Respiratory data was collected on a breath-by-breath basis and averaged into 1 min time bins for data analysis. […] Each parameter was compared to vehicle in order to calculate percent difference, using area under the curve (AUC) and peak response values for each defined acquisition period using a customized visual basic restructure analysis macro (Lopotosky, S. Galleon Buxco Restructure tool, v5.2, 2008). All of the data analysis for the single, stand-alone studies was done using the restructure analysis macro (Lopotosky, S. Galleon Buxco Restructure tool, v5.2, 2008). All merged data analysis with both doses was performed in Graphpad Prism for MV, TV, and f only, for hypercapnia studies. Additionally, percent increase was calculated based on the cohort average immediately prior to the hypercapnic challenge to the group's peak response. For merged hypercapnia studies, t=62 to t=67 was used.

With `CCCNc1nc(NCCC)nc(N(C)OC)n1.O=S(=O)(O)O` [XXXVI, N-(4,6-Bis-n-propylamino-[1,3,5]triazin-2-yl)-N,O-dimethyl-hydroxylamine hydrogen sulfate] the “minute ventilation, reversal of opioid-induced respiratory depression” value [1] was “significantly reversed opioid-induced respiratory depression”, the “facilitation of the HCVR” value ([2]; 0.03 mg/kg/min (same as vehicle group), t=62 to t=67) was 60% and the “respiration in naive animals” value ([2]; 0.03 mg/kg/min IV infusion) was “little or no effect”. For the same molecule, the “hypercapnia ventilatory response (HCVR)” value ([2]; 0.03 mg/kg/min) was “no effect”, the “respiration in naive animals” value ([2]; 0.10 mg/kg/min IV infusion) was “stimulated respiration in naive animals” and the “hypercapnia ventilatory response (HCVR)” value ([2]; 0.10 mg/kg/min) was “augmentation of the hypercapnia ventilatory response (HCVR)”. The “increase in MV during the HCVR challenge” value ([2]; 0.10 mg/kg/min, t=62 to t=67, on top of elevated MV due to compound alone) was 44% and the adverse clinical observations ([2]; rats, doses tested) was “no adverse clinical observations”.
